According to US20100285959A1, “HERBICIDAL MIXTURES” (priority 2006, published 2010):

Assays:
giant foxtail (SETFA) = assay: Test 10 field trial, preemergence; assay type: in vivo, Setaria faberi; settings: 28 DAA
Excerpt: Corn seeds (hybrid ‘Pioneer 33P65 RR’) were planted in mid spring season, 2.5 cm deep in a silt loam soil. Plots were 9.1 m long by 3.0 m wide with rows spaced 76 cm apart. The field was managed using conventional tillage practices. […] Results are the means of the three replicates.

common ragweed (AMBEL) = assay: Test 5 field trial, postemergence; assay type: in vivo, Ambrosia artemisiifolia
Excerpt: (§1) Corn seeds (hybrid ‘Pioneer 38H69’) were planted in mid spring season, 5.1 cm deep in a silty clay loam soil having 3% organic matter and a pH of 6.5. Plots were 9.1 m long by 3.0 m wide with rows spaced 76 cm apart. The field was managed using conventional tillage practices. […] All treatments included a surfactant except glufosinate treatments, both alone and in combination. […] Results are summarized in Table 5 and are the means of the three replicates.

[1] = test system: common lambsquarters (CHEAL); assay: Test 6 field trial, postemergence; assay type: in vivo, Chenopodium album
Excerpt: (§2) Corn seeds (hybrid ‘Pioneer 35Y62’) were planted in mid spring season, 3.8 cm deep in a silt loam soil having 4% organic matter and a pH of 5.8. Plots were 10.7 m long by 1.5 m wide with rows spaced 76 cm apart. Seeds were spaced 18 cm apart within the rows. The field was managed using conventional tillage practices. […] All treatments included a surfactant except glufosinate treatments, both alone and in combination. […] Results are summarized in Table 6 and are the means of the three replicates.

[2] = test system: Pennsylvania smartweed (POLPY); assay: Test 1 field trial, preemergence; assay type: in vivo, Polygonum pensylvanicum
Excerpt: (§3) Corn seeds (hybrid ‘Pioneer 34N43’) were planted in mid spring season, 3.8 cm deep in a silt loam soil having 4.6% organic matter and a pH of 6. Plots were 10.7 m long by 1.5 m wide with rows spaced 76 cm apart. Seeds were spaced 18 cm apart within the rows. The field was managed using conventional tillage practices. […] Results are summarized in Table 1 and are the means of the three replicates. […] Colby's Equation (Colby, S. R. “Calculating Synergistic and Antagonistic Responses of Herbicide Combinations,” Weeds, 15(1), pp 20-22 (1967)) calculates the expected additive effect of herbicidal mixtures, and for two active ingredients is of the form:
(§4) Pa+b=Pa+Pb−(PaPb/100) • wherein Pa+b is the percentage effect of the mixture expected from additive contribution of the individual components, • Pa is the observed percentage effect of the first active ingredient at the same use rate as in the mixture, and • Pb is the observed percentage effect of the second active ingredient at the same use rate as in the mixture.

arrowleaf sida (SIDRH) = assay: Test 11 field trial, preemergence; assay type: in vivo, Sida rhombifolia
Excerpt: (§5) Corn seeds (hybrid ‘Pioneer 3041’) were planted in mid spring season, 5 cm deep in a clay soil having 2.6% organic matter and a pH of 5.6. Plots were 8 m long by 1.5 m wide with rows spaced 80 cm apart. Seeds were spaced 15 cm apart within the rows. The field was managed using conventional tillage practices. […] Treatments consisted of Compound 2 or
(§6) Goosegrass was not evaluated 16 or 91 days after application.

velvetleaf (ABUTH) [3] = assay: Test 6 field trial, postemergence; assay type: in vivo, Abutilon theophrasti
Excerpt: as §2

yellow foxtail (SETLU) = assay: Test 6 field trial, postemergence; assay type: in vivo, Setaria glauca
Excerpt: as §2

large crabgrass (DIGSA) = assay: Test 5 field trial, postemergence; assay type: in vivo, Digitaria sanguinalis
Excerpt: as §1

[4] = test system: common lambsquarters (CHEAL); assay: Test 8 field trial, preemergence; assay type: in vivo, Chenopodium album
Excerpt: Corn seeds (hybrid ‘Pioneer 31G96’) were planted in mid spring season, 3.8 cm deep in a clay loam soil having 2% organic matter and a pH of 6.6. Plots were 6.1 m long by 3.0 m wide with rows spaced 76 cm apart. Seeds were spaced 15 cm apart within the rows. The field was managed using conventional tillage practices. […] A few of the weed species could not be evaluated at every timing. […] Results are the means of the three replicates.

velvetleaf (ABUTH) [5] = assay: Test 1 field trial, preemergence; assay type: in vivo, Abutilon theophrasti
Excerpt: as §3, §4

goosegrass (ELEIN) = assay: Test 11 field trial, preemergence; assay type: in vivo, Eleusine indica
Excerpt: as §5, §6

corn (ZEAMD) = assay: Test 6 field trial, postemergence; assay type: in vivo, Zea mays ssp. indentata; settings: hybrid Pioneer 35Y62, corn (Zea mays ssp. indentata), in vivo
Excerpt: as §2

[6] = test system: tropical spiderwort (COMBE); assay: Test 11 field trial, preemergence; assay type: in vivo, Commelina benghalensis; parameters: scale not given here; settings: alone or + atrazine 1500 or metolachlor 2500
Excerpt: as §5, §6

[7] = 16 DAA, Cpd 2 30 g a.i./ha alone or with glufosinate 470 or glyphosate 1120
[8] = 16 DAA, Cpd 2 60 g a.i./ha alone or with atrazine 1120, glufosinate 470 or glyphosate 1120
[9] = 31 DAA, Cpd 2 30 g a.i./ha alone or with glufosinate 470 or glyphosate 1120
[10] = 31 DAA, Cpd 2 60 g a.i./ha alone or with atrazine 1120, glufosinate 470 or glyphosate 1120
[11] = 28 DAA, g a.i./ha: Cpd 2 50, S-Metolachlor 1870
[12] = 28 DAA, g a.i./ha: Cpd 2 100, Atrazine 1680, S-Metolachlor 1870
[13] = 28 DAA, g a.i./ha: Cpd 2 150, S-Metolachlor 1870
[14] = 56 DAA, g a.i./ha: Cpd 2 50, S-Metolachlor 1870
[15] = 56 DAA, g a.i./ha: Cpd 2 100, Atrazine 1680, S-Metolachlor 1870
[16] = 56 DAA, g a.i./ha: Cpd 2 150, S-Metolachlor 1870
[17] = 30 DAA, Cpd 2/Cpd 1 at 62 g a.i./ha, alone or + atrazine 1500 or metolachlor 2500
[18] = 30 DAA, Cpd 2/Cpd 1 at 125 g a.i./ha, alone or + atrazine 1500 or metolachlor 2500
[19] = 44 DAA, Cpd 2/Cpd 1 at 62 g a.i./ha, alone or + atrazine 1500 or metolachlor 2500
[20] = 44 DAA, Cpd 2/Cpd 1 at 125 g a.i./ha, alone or + atrazine 1500 or metolachlor 2500
[21] = 62 DAA, 62 g a.i./ha, scale 0 to 100
[22] = 62 DAA, 125 g a.i./ha, scale 0 to 100

COC(=O)c1nc(C2CC2)nc(N)c1Cl [Compound 2, methyl 6-amino-5-chloro-2-cyclopropyl-4-pyrimidinecarboxylate]
SETFA Obs (giant foxtail (SETFA); g a.i./ha: Cpd 2 50, S-Metolachlor 1870): 13% | SETFA Obs (giant foxtail (SETFA); g a.i./ha: Cpd 2 100, Atrazine 1680, S-Metolachlor 1870): 7% | SETFA Obs (giant foxtail (SETFA); g a.i./ha: Cpd 2 150, S-Metolachlor 1870): 20% | AMBEL Obs (common ragweed (AMBEL); [7]): 85% | AMBEL Obs (common ragweed (AMBEL); [8]): 95% | AMBEL Obs (common ragweed (AMBEL); [9]): 83% | AMBEL Obs (common ragweed (AMBEL); [10]): 99% | CHEAL Obs ([1]; 14 DAA, 30 g a.i./ha): 100% | CHEAL Obs ([1]; 14 DAA, 60 g a.i./ha): 100% | CHEAL Obs ([1]; 28 DAA, 30 g a.i./ha): 100% | CHEAL Obs ([1]; 28 DAA, 60 g a.i./ha): 100% | POLPY Obs [2, 11]: 0 | POLPY Obs [2, 12]: 0 | POLPY Obs [2, 13]: 0 | POLPY Obs [2, 14]: 0 | POLPY Obs [2, 15]: 0 | POLPY Obs [2, 16]: 0 | SIDRH Obs (arrowleaf sida (SIDRH); 16 DAA, Cpd 2/Cpd 1 at 62 g a.i./ha, alone or + atrazine 1500 or metolachlor 2500): 20 | SIDRH Obs (arrowleaf sida (SIDRH); 16 DAA, Cpd 2/Cpd 1 at 125 g a.i./ha, alone or + atrazine 1500 or metolachlor 2500): 40 | SIDRH Obs (arrowleaf sida (SIDRH); [17]): 40 | SIDRH Obs (arrowleaf sida (SIDRH); [18]): 70 | SIDRH Obs (arrowleaf sida (SIDRH); [19]): 40 | SIDRH Obs (arrowleaf sida (SIDRH); [20]): 75 | SIDRH Obs (arrowleaf sida (SIDRH); [21]): 0 | SIDRH Obs (arrowleaf sida (SIDRH); [22]): 40 | SIDRH Obs (arrowleaf sida (SIDRH); 91 DAA, 62 g a.i./ha, scale 0 to 100): 0 | SIDRH Obs (arrowleaf sida (SIDRH); 91 DAA, 125 g a.i./ha, scale 0 to 100): 40 | ABUTH Obs (velvetleaf (ABUTH) [3]; 14 DAA, 30 g a.i./ha): 0% | ABUTH Obs (velvetleaf (ABUTH) [3]; 14 DAA, 60 g a.i./ha): 0% | ABUTH Obs (velvetleaf (ABUTH) [3]; 28 DAA, 30 g a.i./ha): 0% | ABUTH Obs (velvetleaf (ABUTH) [3]; 28 DAA, 60 g a.i./ha): 0% | SETLU Obs (yellow foxtail (SETLU); 14 DAA, 30 g a.i./ha): 0% | SETLU Obs (yellow foxtail (SETLU); 14 DAA, 60 g a.i./ha): 0% | SETLU Obs (yellow foxtail (SETLU); 28 DAA, 30 g a.i./ha): 0% | SETLU Obs (yellow foxtail (SETLU); 28 DAA, 60 g a.i./ha): 0% | DIGSA Obs (large crabgrass (DIGSA); [7]): 0% | DIGSA Obs (large crabgrass (DIGSA); [8]): 0% | DIGSA Obs (large crabgrass (DIGSA); [9]): 0% | DIGSA Obs (large crabgrass (DIGSA); [10]): 2% | CHEAL Obs ([4]; 19 DAA, g a.i./ha: Cpd 2 50, S-Metolachlor 1870): 75% | CHEAL Obs ([4]; 19 DAA, g a.i./ha: Cpd 2 100, Atrazine 1680, S-Metolachlor 1870): 100% | CHEAL Obs ([4]; 19 DAA, g a.i./ha: Cpd 2 150, S-Metolachlor 1870): 100% | CHEAL Obs [4, 14]: 68% | CHEAL Obs [4, 15]: 100% | CHEAL Obs [4, 16]: 100% | ABUTH Obs (velvetleaf (ABUTH) [5]; [11]): 0 | ABUTH Obs (velvetleaf (ABUTH) [5]; [12]): 0 | ABUTH Obs (velvetleaf (ABUTH) [5]; [13]): 0 | ABUTH Obs (velvetleaf (ABUTH) [5]; [14]): 0 | ABUTH Obs (velvetleaf (ABUTH) [5]; [15]): 0 | ABUTH Obs (velvetleaf (ABUTH) [5]; [16]): 10 | ELEIN Obs (goosegrass (ELEIN); [17]): 0 | ELEIN Obs (goosegrass (ELEIN); [18]): 20 | ELEIN Obs (goosegrass (ELEIN); [19]): 0 | ELEIN Obs (goosegrass (ELEIN); [20]): 0 | ELEIN Obs (goosegrass (ELEIN); [21]): 0 | ELEIN Obs (goosegrass (ELEIN); [22]): 0 | ZEAMD Obs (corn (ZEAMD); 14 days after application): 0% | ZEAMD Obs (corn (ZEAMD); 28 days after application): 0% | COMBE Obs ([6]; 16 DAA, Cpd 2/Cpd 1 at 62 g a.i./ha): 40 | COMBE Obs ([6]; 16 DAA, Cpd 2/Cpd 1 at 125 g a.i./ha): 60 | COMBE Obs ([6]; 30 DAA, Cpd 2/Cpd 1 at 62 g a.i./ha): 40 | COMBE Obs ([6]; 30 DAA, Cpd 2/Cpd 1 at 125 g a.i./ha): 60 | COMBE Obs ([6]; 44 DAA, Cpd 2/Cpd 1 at 62 g a.i./ha): 40 | COMBE Obs ([6]; 44 DAA, Cpd 2/Cpd 1 at 125 g a.i./ha): 60 | COMBE Obs ([6]; 62 DAA, Cpd 2/Cpd 1 at 62 g a.i./ha): 0 | COMBE Obs ([6]; 62 DAA, Cpd 2/Cpd 1 at 125 g a.i./ha): 40 | COMBE Obs ([6]; 91 DAA, Cpd 2/Cpd 1 at 62 g a.i./ha): 0 | COMBE Obs ([6]; 91 DAA, Cpd 2/Cpd 1 at 125 g a.i./ha): 40
